Results published in patent US20240043404A1 (AbbVie Inc., priority 2009, published 2024).

Test system: RS4;11 cells
Assay: RS4;11 cell viability assay (CellTiter Glo);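 note: acute lymphoblastic leukemia line RS4,11, EC50 derived from percentage of viable cells after treatment relative to untreated controls, cell killing taken as a measure of Bcl-2 inhibition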
Assay type: cell-based, human
Conditions: Homo sapiens, RS4-11, 48 h, 50,000 cells per well, 10% human serum, 48 hours; read-out: RS4; 11 EC50 Values
Protocol: The acute lymphoblastic leukemia (ALL) cell line RS4;11 was used as the primary human cell line to assess the cellular activity of Bcl-2 selective agents in vitro and their efficacy in vivo.
Cell cytotoxicity EC50 values were assessed using CellTiter Glo (Promega) according to the manufacturer's recommendations. The EC50 values were determined as a percentage of viable cells following treatment compared to the untreated control cells.

| SMILES | EC50 [nM] |
| --- | --- |
| CO[C@H]1CC[C@@H](COc2ncc(S(=O)(=O)NC(=O)c3ccc(N4CCN(CC5=C(c6ccc(Cl)cc6)CC(C)(C)CC5)CC4)cc3Oc3cnc4[nH]ccc4c3)cc2Cl)CC1 [Example 211, Cis-N-({5-chloro-6-[(4-methoxycyclohexyl)methoxy]pyridin-3-yl}sulfonyl)-4-(4-{[2-(4-chlorophenyl)-4,4-dimethylcyclohex-1-en-1-yl]methyl}piperazin-1-yl)-2-(1H-pyrrolo[2,3-b]pyridin-5-yloxy)benzamide] | 307 |
| CC1(C)CCC(CN2CCN(c3ccc(C(=O)NS(=O)(=O)c4ccc(N[C@H]5CCN(C6COC6)C5)c([N+](=O)[O-])c4)c(Oc4cnc5[nH]ccc5c4)c3)CC2)=C(c2ccc(Cl)cc2)C1 [Example 212, 4-(4-{[2-(4-chlorophenyl)-4,4-dimethylcyclohex-1-en-1-yl]methyl}piperazin-1-yl)-N-[(3-nitro-4-{[(3S)-1-oxetan-3-ylpyrrolidin-3-yl]amino}phenyl)sulfonyl]-2-(1H-pyrrolo[2,3-b]pyridin-5-yloxy)benzamide] | 12.8 |
| COCCOCCN1CCOC(CNc2ccc(S(=O)(=O)NC(=O)c3ccc(N4CCN(CC5=C(c6ccc(Cl)cc6)CC(C)(C)CC5)CC4)cc3Oc3cnc4[nH]ccc4c3)cc2[N+](=O)[O-])C1 (stereo not drawn) [Example 213, 4-(4-{[2-(4-chlorophenyl)-4,4-dimethylcyclohex-1-en-1-yl]methyl}piperazin-1-yl)-N-({4-[({4-[2-(2-methoxyethoxy)ethyl]morpholin-2-yl}methyl)amino]-3-nitrophenyl}sulfonyl)-2-(1H-pyrrolo[2,3-b]pyridin-5-yloxy)benzamide] | 6.1 |
| CC1(C)CCC(CN2CCN(c3ccc(C(=O)NS(=O)(=O)c4ccc(NCC5CN(C6COC6)CCO5)c([N+](=O)[O-])c4)c(Oc4cnc5[nH]ccc5c4)c3)CC2)=C(c2ccc(Cl)cc2)C1 (stereo not drawn) [Example 217, 4-(4-{[2-(4-chlorophenyl)-4,4-dimethylcyclohex-1-en-1-yl]methyl}piperazin-1-yl)-N-{[3-nitro-4-({[4-(oxetan-3-yl)morpholin-2-yl]methyl}amino)phenyl]sulfonyl}-2-(1H-pyrrolo[2,3-b]pyridin-5-yloxy)benzamide] | 1.55 |
| CC1(C)CCC(CN2CCN(c3ccc(C(=O)NS(=O)(=O)c4ccc(NCC5CN(C6CC6)CCO5)c([N+](=O)[O-])c4)c(Oc4cnc5[nH]ccc5c4)c3)CC2)=C(c2ccc(Cl)cc2)C1 (stereo not drawn) [Example 218, 4-(4-{[2-(4-chlorophenyl)-4,4-dimethylcyclohex-1-en-1-yl]methyl}piperazin-1-yl)-N-[(4-{[(4-cyclopropylmorpholin-2-yl)methyl]amino}-3-nitrophenyl)sulfonyl]-2-(1H-pyrrolo[2,3-b]pyridin-5-yloxy)benzamide] | 7.29 |
| CC1(C)CCC(CN2CCN(c3ccc(C(=O)NS(=O)(=O)c4ccc(N[C@@H]5CCN(C6COC6)C5)c([N+](=O)[O-])c4)c(Oc4cnc5[nH]ccc5c4)c3)CC2)=C(c2ccc(Cl)cc2)C1 [Example 224, 4-(4-{[2-(4-chlorophenyl)-4,4-dimethylcyclohex-1-en-1-yl]methyl}piperazin-1-yl)-N-[(3-nitro-4-{[(3R)-1-(oxetan-3-yl)pyrrolidin-3-yl]amino}phenyl)sulfonyl]-2-(1H-pyrrolo[2,3-b]pyridin-5-yloxy)benzamide] | 13.9 |
| CC1(C)CCC(CN2CCN(c3ccc(C(=O)NS(=O)(=O)c4ccc(N[C@@H]5CCN(C(CF)CF)C5)c(S(=O)(=O)C(F)(F)F)c4)c(Oc4cnc5[nH]ccc5c4)c3)CC2)=C(c2ccc(Cl)cc2)C1 [Example 225, 4-(4-{[2-(4-chlorophenyl)-4,4-dimethylcyclohex-1-en-1-yl]methyl}piperazin-1-yl)-N-[(4-{[(3R)-1-(1,3-difluoropropan-2-yl)pyrrolidin-3-yl]amino}-3-[(trifluoromethyl)sulfonyl]phenyl)sulfonyl]-2-(1H-pyrrolo[2,3-b]pyridin-5-yloxy)benzamide] | 560 |
| COCCN1CCCC(CNc2ccc(S(=O)(=O)NC(=O)c3ccc(N4CCN(CC5=C(c6ccc(Cl)cc6)CC(C)(C)CC5)CC4)cc3Oc3cnc4[nH]ccc4c3)cc2[N+](=O)[O-])C1 (stereo not drawn) [Example 228, 4-(4-{[2-(4-chlorophenyl)-4,4-dimethylcyclohex-1-en-1-yl]methyl}piperazin-1-yl)-N-{[4-({[1-(2-methoxyethyl)piperidin-3-yl]methyl}amino)-3-nitrophenyl]sulfonyl}-2-(1H-pyrrolo[2,3-b]pyridin-5-yloxy)benzamide] | > 1000 |

More lines, now with the values ahead:

| EC50 [nM] | SMILES |
| --- | --- |
| 4.38 | CC1(C)CCC(CN2CCN(c3ccc(C(=O)NS(=O)(=O)c4ccc(NCC5CN(CC#N)CCO5)c([N+](=O)[O-])c4)c(Oc4cnc5[nH]ccc5c4)c3)CC2)=C(c2ccc(Cl)cc2)C1 (stereo not drawn) [Example 214, 4-(4-{[2-(4-chlorophenyl)-4,4-dimethylcyclohex-1-en-1-yl]methyl}piperazin-1-yl)-N-{[4-({[4-(cyanomethyl)morpholin-2-yl]methyl}amino)-3-nitrophenyl]sulfonyl}-2-(1H-pyrrolo[2,3-b]pyridin-5-yloxy)benzamide] |
| 0.56 | CN(C)CC(=O)N1CCOC(CNc2ccc(S(=O)(=O)NC(=O)c3ccc(N4CCN(CC5=C(c6ccc(Cl)cc6)CC(C)(C)CC5)CC4)cc3Oc3cnc4[nH]ccc4c3)cc2[N+](=O)[O-])C1 (stereo not drawn) [Example 215, 4-(4-{[2-(4-chlorophenyl)-4,4-dimethylcyclohex-1-en-1-yl]methyl}piperazin-1-yl)-N-{[4-({[4-(N,N-dimethylglycyl)morpholin-2-yl]methyl}amino)-3-nitrophenyl]sulfonyl}-2-(1H-pyrrolo[2,3-b]pyridin-5-yloxy)benzamide] |
| 683 | CC1(C)CCC(CN2CCN(c3ccc(C(=O)NS(=O)(=O)c4ccc(NCC5CN(CC(=O)O)CCO5)c([N+](=O)[O-])c4)c(Oc4cnc5[nH]ccc5c4)c3)CC2)=C(c2ccc(Cl)cc2)C1 (stereo not drawn) [Example 216, (2-{[(4-{[4-(4-{[2-(4-chlorophenyl)-4,4-dimethylcyclohex-1-en-1-yl]methyl}piperazin-1-yl)-2-(1H-pyrrolo[2,3-b]pyridin-5-yloxy)benzoyl]sulfamoyl}-2-nitrophenyl)amino]methyl}morpholin-4-yl)acetic acid] |
| > 1000 | CC1(C)CCC(CN2CCN(c3ccc(C(=O)NS(=O)(=O)c4cnc(OCC5CCOCC5)c(S(C)(=O)=O)c4)c(Oc4cnc5[nH]ccc5c4)c3)CC2)=C(c2ccc(Cl)cc2)C1 [Example 219, 4-(4-{[2-(4-chlorophenyl)-4,4-dimethylcyclohex-1-en-1-yl]methyl}piperazin-1-yl)-N-{[5-(methylsulfonyl)-6-(tetrahydro-2H-pyran-4-ylmethoxy)pyridin-3-yl]sulfonyl}-2-(1H-pyrrolo[2,3-b]pyridin-5-yloxy)benzamide] |
| > 1000 | CC1(C)CCC(CN2CCN(c3ccc(C(=O)NS(=O)(=O)c4ccc(OCC5(F)CCOCC5)c(S(=O)(=O)C(F)(F)F)c4)c(Oc4cnc5[nH]ccc5c4)c3)CC2)=C(c2ccc(Cl)cc2)C1 [Example 220, 4-(4-{[2-(4-chlorophenyl)-4,4-dimethylcyclohex-1-en-1-yl]methyl}piperazin-1-yl)-N-({4-[(4-fluorotetrahydro-2H-pyran-4-yl)methoxy]-3-[(trifluoromethyl)sulfonyl]phenyl}sulfonyl)-2-(1H-pyrrolo[2,3-b]pyridin-5-yloxy)benzamide] |
| 94.8 | CC1(C)CCC(CN2CCN(c3ccc(C(=O)NS(=O)(=O)c4ccc(OCC5(C)CCOCC5)c([N+](=O)[O-])c4)c(Oc4cnc5[nH]ccc5c4)c3)CC2)=C(c2ccc(Cl)cc2)C1 [Example 221, 4-(4-{[2-(4-chlorophenyl)-4,4-dimethylcyclohex-1-en-1-yl]methyl}piperazin-1-yl)-N-({4-[(4-methyltetrahydro-2H-pyran-4-yl)methoxy]-3-nitrophenyl}sulfonyl)-2-(1H-pyrrolo[2,3-b]pyridin-5-yloxy)benzamide] |
| > 1000 | CCOC(=O)N1CCN(c2ccc(S(=O)(=O)NC(=O)c3ccc(N4CCN(CC5=C(c6ccc(Cl)cc6)CC(C)(C)CC5)CC4)cc3Oc3cnc4[nH]ccc4c3)cc2[N+](=O)[O-])CC1 [Example 222, ethyl 4-(4-{[4-(4-{[2-(4-chlorophenyl)-4,4-dimethylcyclohex-1-en-1-yl]methyl}piperazin-1-yl)-2-(1H-pyrrolo[2,3-b]pyridin-5-yloxy)benzoyl]sulfamoyl}-2-nitrophenyl)piperazine-1-carboxylate] |
| 182 | CC1(C)CCC(CN2CCN(c3ccc(C(=O)NS(=O)(=O)c4ccc(N5CCC(N6CCOCC6)CC5)c([N+](=O)[O-])c4)c(Oc4cnc5[nH]ccc5c4)c3)CC2)=C(c2ccc(Cl)cc2)C1 [Example 223, 4-(4-{[2-(4-chlorophenyl)-4,4-dimethylcyclohex-1-en-1-yl]methyl}piperazin-1-yl)-N-({4-[4-(morpholin-4-yl)piperidin-1-yl]-3-nitrophenyl}sulfonyl)-2-(1H-pyrrolo[2,3-b]pyridin-5-yloxy)benzamide] |
| 118 | CC(C)N1CCC(Nc2ccc(S(=O)(=O)NC(=O)c3ccc(N4CCN(CC5=C(c6ccc(Cl)cc6)CC(C)(C)CC5)CC4)cc3Oc3cnc4[nH]ccc4c3)cc2[N+](=O)[O-])CC1 [Example 226, 4-(4-{[2-(4-chlorophenyl)-4,4-dimethylcyclohex-1-en-1-yl]methyl}piperazin-1-yl)-N-({4-[(1-isopropylpiperidin-4-yl)amino]-3-nitrophenyl}sulfonyl)-2-(1H-pyrrolo[2,3-b]pyridin-5-yloxy)benzamide] |
| 7.36 | CC1(C)CCC(CN2CCN(c3ccc(C(=O)NS(=O)(=O)c4ccc(NC5CCN(C(C)(C)C)CC5)c([N+](=O)[O-])c4)c(Oc4cnc5[nH]ccc5c4)c3)CC2)=C(c2ccc(Cl)cc2)C1 [Example 227, N-({4-[(1-tert-butylpiperidin-4-yl)amino]-3-nitrophenyl}sulfonyl)-4-(4-{[2-(4-chlorophenyl)-4,4-dimethylcyclohex-1-en-1-yl]methyl}piperazin-1-yl)-2-(1H-pyrrolo[2,3-b]pyridin-5-yloxy)benzamide] |
